For test [1], the system named is H1792 cells harboring KRAS G12C. The experiment in a line: Cell viability assay (CellTiter-Glo) in H1792 cells. The class given is cell-based, human. On the procedure:
(§1) Cells were seeded in Corning 384-well black walled/clear bottom microplates with a density of 1,000 cells/well and treated with indicated drugs and concentrations following cell attachment for 24 h. After 72 h or 96 h, as indicated, cell viability was evaluated with CellTiter-Glo (Promega, Madison, WI) according to manufacturer's recommendations. An M5 Spectramax plate reader (Molecular devices) was used to read the plates with 500 ms integration. Data was processed and analyzed using Excel and GraphPad Prism 9.0.

Test [2] concerns H1792 LUAD cells. The experiment in a line: Chemical proteomics target profiling in live H1792 cells (label-free LC-MS/MS, comparison with control probe 22 and panel-wide cross-comparison). The class given is binding, human. The conditions noted are these: for number of probe-enriched target candidates over control probe 22 (promiscuity): log2 ratio vs. control probe >2.32; for prominent target protein predominantly enriched by the probe: compared to control probe and probe panel; for other proteins also enriched by the probe: log2 ratio>2.32 and enrichment score>2. How it is done:
(§2) Cells were grown in 10 cm dishes to ˜90% confluence at the time of treatment. Cells were carefully washed twice with Dulbecco's phosphate buffered saline (DPBS) and replenished with fresh serum-free RPMI 1640 media containing indicated probes ([…]), competitors, or DMSO. Without competitors, cells were incubated with probes for 30 min at 37° C. and then exposed to 365 nm UV light for 15 min on ice. With competitors, cells were pre-treated with competitors for 30 min and photoactivated for 15 min. Probes were then added to cells for an additional 30 min incubation. For no UV experiments, cells were incubated for 15 min under ambient light. Cells were harvested in cold DPBS and pellets were washed with cold DPBS (2 X). Pellets were either directly processed or kept frozen at −80° C. until use. Cells pellets were lysed for 30 min in cold DPBS (100-300 uL) per culture dish supplemented with 1% NP-40, followed by sonication (5 pulses, 4 s on, 20 s off, output setting=4). Lysates were centrifuged at 20,817×g for 20 min, and supernatant (soluble proteome) was used for further processing. Protein concentrations were determined using Bradford assays.
Protein pellets were transferred to 5 mL microcentrifuge tubes and then resuspended in a freshly-prepared solution of proteomics-grade urea (320 μL, 6 M Urea in DPBS) containing 80 μL of 10% SDS and dissolved by sonication. To each solution, 4 mL DPBS was added (final conc: 0.2%, total volume) and incubated with pre-equilibrated NeutrAvidin agarose resin (100 μL 1:1 slurry, Pierce, Cat. 29201) for 2 hrs at ambient temperature on a rotator. The NeutrAvidin beads were collected by centrifugation (1,400×g, 2 min) and sequentially washed with 0.2% SDS in DPBS (2×2 mL), detergent-free DPBS (2×2 mL), and 50 mM ammonium bicarbonate (AMBIC, 2×2 mL). Beads were resuspended with 200 μL 50 mM AMBIC and incubated with TCEP 50 μL (100 mM in 50 mM AMBIC) for 30 min at 37° C. Iodoacetamide (50 μL of 200 mM in 50 mM AMBIC) was added and incubated for 30 min at ambient temperature. The beads were again washed with 2×1 mL 50 mM AMBIC and resuspended in 100 μL of fresh 50 mM AMBIC and treated with 2 μg of sequencing grade modified trypsin (Promega, #V5111) at 37° C. overnight. These samples were acidified with formic acid (final conc: 5%) and centrifuged (1,000×g, 2 min). The supernatant was collected and desalted through ZIPTIPs, and the desalted peptide mixture were dried in vacuum and reconstituted with HPLC buffer (2% acetonitrile, 0.1% formic acid) for LC-MS/MS analysis. Tryptic peptides of avidin were excluded from MS2 analysis to maximize detection of the protein targets (Table S7). Samples were analyzed using LC-MS/MS after being spiked with 50 fmol/uL PRTC standards (88320, Pierce Retention Time Calibration Mixture, Thermo Fisher, MA). A nanoflow ultra high performance liquid chromatograph and nanoelectrospray orbitrap mass spectrometer (RSLCnano and Q Exactive plus, Thermo) were used for LC-MS/MS. The sample was loaded onto a pre-column (C18 PepMap100, 2 cm length×100 μm ID packed with C18 reversed-phase resin, 5 μm particle size, 100 Å pore size) and washed for 8 minutes with aqueous 2% acetonitrile and 0.1% formic acid. Trapped peptides were eluted onto the analytical column, (C18 PepMap100, 25 cm length×75 μm ID, 2 μm particle size, 100 Å pore size, Thermo). A 120-minute gradient was programmed as: 95% solvent A (aqueous 2% acetonitrile+0.1% formic acid) for 8 minutes, solvent B (aqueous 90% acetonitrile+0.1% formic acid) from 5% to 38.5% in 90 minutes, then solvent B from 50% to 90% B in 7 minutes and held at 90% for 5 minutes, followed by solvent B from 90% to 5% in 1 minute and re-equilibration for 10 minutes using a flow rate of 300 nl/min. Spray voltage was 1900 V. Capillary temperature was 275° C. S lens RF level was set at 40. Top 16 tandem mass spectra were collected in a data-dependent manner. The resolution for MS and MS/MS were set at 70,000 and 17,500 respectively. […]

Test [3] concerns drug-refractory NSCLC cells (H1792, H520, HCC366). The experiment in a line: Cell viability assay (CellTiter-Glo) across drug-refractory NSCLC cell lines. The conditions noted are these: single agent. The class given is cell-based, human. How it is done: as §1
Test [4] has as its system H1792 cells. The experiment in a line: In-gel fluorescence analysis of probe-labeled proteins after photocrosslinking in live H1792 cells. The conditions noted are these: compared to vehicle. The class given is binding, human. On the procedure:
as §2
To 1 mg of protein, were added a mixture of TBTA (Tris((1-benzyl-4-triazolyl)methyl)amine, 60 μL/sample, 1.7 mM in 1:4 DMSO: t-BuOH stock), CuSO4 (20 μL/sample, 50 mM in H2O), TCEP (tris(2-carboxyethyl) phosphine, 20 μL/sample, 50 mM in DPBS, made fresh) and Biotin-Azide conjugate (10 μL/sample, 10 mM in DMSO stock). Each sample was rotated at room temperature for 2 h. To each resultant a cold 4:1 mixture (600 μL) of methanol (MeOH)/chloroform (CHCl3) was added followed by cold PBS (100 μL) on ice. The resulting cloudy mixture was centrifuged (5,000×g, 10 min, 4° C.) to fractionate the protein interface from the organic and aqueous solvent layers. A MeOH:CHCl3 (1:1, 1 mL, 2×) mixture was used to wash protein discs thoroughly. Protein discs were sonicated in cold 4:1 MeOH:CHCl3 (2 mL) mixture. The remaining precipitate was pelleted by centrifugation (5,000×g, 10 min, 4° C.). […] Gels were subjected to fluorescence imaging or Western Blotting.

Test [5] relates to H520 cells harboring amplified FGFR1. The experiment in a line: Cell viability assay (CellTiter-Glo) in H520 cells. The class given is cell-based, human. On the procedure:
as §1

The test system of test [6] is H1792 cells. The experiment in a line: Protein tyrosine reactivity profiling (SuTEx probe HHS-482, LC-MS/MS) in H1792 cells. The class given is cell-based, human. The conditions noted are these: 24 h treatment, log2 ratio ≤−0.585 or ≥0.585, p<0.05 vs. vehicle. How it is done:
Cell lysates were prepared and diluted to 2 mg/mL in PBS. Samples were treated with HHS-482 (a SuTEx probe) at 25 μM for 1 h at room temperature. Labeled proteomes were subjected to CuAAC conjugation with Biotin-Azide conjugate (200 μM) by mixing with TCEP (1 mM), TBTA (100 μM), and CuSO4 (1 mM). After 1 h incubation, resulting mixtures were subjected to MeOH: CHCl3 extraction as described above. Protein discs were reconstituted with urea buffer supplemented with 10% SDS. Samples were processed with NeutrAvidin beads, on-bead digestion with trypsin, and ZIPTIP purification as described above. Samples were dried in vacuum and prepared for LC-MS/MS analysis.

Structures are written as SMILES.

`C=CC(=O)N1CCN(c2ncnc3c(F)c(-c4c(O)cccc4F)c(Cl)cc23)CC1` [ARS1620, reference compound]: the “cell response to targeted drug” value in test [1] (H1792, KRAS^G12C mutation) is “poorly responded”.

`C#CCCC1(CCC(=O)NC2CC(Oc3nccn4nc(C)cc34)CC(C)(C)C2)N=N1` (stereo not drawn) [Probe 2, 3-(3-(but-3-yn-1-yl)-3H-diazirin-3-yl)-N-(3,3-dimethyl-5-((2-methylpyrazolo[1,5-a]pyrazin-4-yl)oxy)cyclohexyl)propanamide]: the “number of probe-enriched target candidates over control probe 22 (promiscuity)” value (“number … over control probe 22 (promiscuity)” below) in test [2] is “most promiscuous”.

With `C#CCCC1(CCC(=O)N2CCC(Oc3ncc(C(F)(F)F)cc3Cl)C2)N=N1` (stereo not drawn) [Probe 5, 3-(3-(but-3-yn-1-yl)-3/-diazirin-3-yl)-1-(3-((3-chloro-5-(trifluoromethyl)pyridin-2-yl)oxy)pyrrolidin-1-yl)propan-1-one], the “cellular activity of probes (cell viability)” value (shortened to “cellular activity of probes”) in test [3] is listed as “displayed activity toward multiple tested cell lines”. Besides, in test [2], the “prominent target protein predominantly enriched by the probe” value is reported as “ME3”; the “number … over control probe 22 (promiscuity)” value is on record as “most promiscuous”; the “other proteins also enriched by the probe” value is “FARSA, PTGR1, ME1, YIF1A, and SGPL1”. Moreover, the “proteome labeling by probe (in-gel fluorescence)” value in test [4] is recorded as “efficiently labeled a wide range of proteins”.

For the compound `C#CCCC1(CCC(=O)N2CCN(Cc3nc(-c4cccs4)cs3)CC2)N=N1` [Probe 6, 3-(3-(but-3-yn-1-yl)-3H-diazirin-3-yl)-1-(4-((4-(thiophen-2-yl)thiazol-2-yl)methyl)piperazin-1-yl)propan-1-one], in test [2], the “prominent target protein predominantly enriched by the probe” value is listed as “NDUFB11”; the “number … over control probe 22 (promiscuity)” value is given as “most promiscuous”; the “other proteins also enriched by the probe” value is “NDUFB10, AK3, and LTA4H”.

On to `C#CCCC1(CCC(=O)Nc2ccc3c(c2)N(CC(C)C)C(=O)C(C)(C)CO3)N=N1` [Probe 7, 3-(3-(but-3-yn-1-yl)-3H-diazirin-3-yl)-N-(5-isobutyl-3,3-dimethyl-4-oxo-2,3,4,5-tetrahydrobenzo[b][1,4]oxazepin-7-yl)propanamide], for which the “cellular activity of probes” value in test [3] was “displayed activity toward multiple tested cell lines”. For the same compound, in test [2], the “prominent target protein predominantly enriched by the probe” value is given as “MMGT1” and the “number … over control probe 22 (promiscuity)” value is “most promiscuous”.

As for `C#CCCC1(CCC(=O)N2CC(Nc3ncccn3)C2)N=N1` [Probe 18, 3-(3-(but-3-yn-1-yl)-3H-diazirin-3-yl)-1-(3-(pyrimidin-2-ylamino)azetidin-1-yl)propan-1-one], the “number … over control probe 22 (promiscuity)” value in test [2] is on record as “few”.

For `C#CCCC1(CCC(=O)N2CCCCC2c2nnc(C(=O)OC)s2)N=N1` (stereo not drawn) [Probe 19, Methyl-5-(1-(3-(3-(but-3-yn-1-yl)-3H-diazirin-3-yl)propanoyl)piperidin-2-yl)-1,3,4-thiadiazole-2-carboxylate], the “number … over control probe 22 (promiscuity)” value in test [2] is “few”.

Consider `C#CCCC1(CCC(=O)N2CCCC2COc2nc3ccccc3cc2C#N)N=N1` (stereo not drawn) [Probe 20, 2-((1-(3-(3-(but-3-yn-1-yl)-3H-diazirin-3-yl)propanoyl)pyrrolidin-2-yl)methoxy)quinoline-3-carbonitrile], for which the “cellular activity of probes” value in test [3] is given as “displayed activity toward multiple tested cell lines”.

For the compound `C#CCCC1(CCC(=O)NCCCNC(=O)c2ccc3c4c(ncnc24)-c2ccccc2C3=O)N=N1` [Probe 21, N-(3-(3-(3-(but-3-yn-1-yl)-3H-diazirin-3-yl)propanamido)propyl)-7-oxo-7H-benzo[e]perimidine-4-carboxamide], the “cellular activity of probes” value in test [3] was “displayed activity toward multiple tested cell lines”. The “relative potency among active probes (cell viability)” value in test [3] was “more potent”. Moreover, the “number of candidate target proteins identified for the probe” value in test [2] is recorded as 5. The “proteome labeling by probe (in-gel fluorescence)” value in test [4] is recorded as “efficiently labeled a wide range of proteins”. Besides, the “cellular activity (cell viability)” value is given as “highly active” in test [1] (H1792 cells, single agent) and “highly active” in test [5] (H520 cells, single agent).

For `CCN1CCN(c2ccc(Nc3cc(N(C)C(=O)Nc4c(Cl)c(OC)cc(OC)c4Cl)ncn3)cc2)CC1` [infigratinib, reference compound], the “cell response to targeted drug” value in test [5] (H520, FGFR1 overexpression) was “only partially respond”.

With `C=CC(=O)N1CCN(c2nc(=O)n(-c3c(C)ccnc3C(C)C)c3nc(-c4c(O)cccc4F)c(F)cc23)[C@@H](C)C1` [sotorasib], the “number of proteins with significantly altered Tyr reactivity” value in test [6] turned out to be 106 proteins.
